Measurements taken from US8293979B2, “Weed controller metabolism proteins, genes, thereof and use of the same” (Sumitomo Chemical Company, Limited, priority 2001, dated 2012).

Assays:
[1] = system: leaf pieces of the tobacco to which the present invention DNA (A1)S has been introduced; experiment: Evaluation of the resistance utilizing a leaf piece of the present invention DNA (A1)S transgenic tobacco; type: cell-based; settings: 1 point continuously grew, 0.5 halfly withered, 0 turned white and withered
Method: Next, other than culturing overnight the transgenic agrobacterium bearing the above plasmid at 30° C. in LB liquid medium containing 25 mg/L kanamycin, said agrobacterium were utilized to introduce genes into tobacco according to the method described in Example 19. There were obtained, respectively, transgenic tobaccos which have incorporated the T-DNA region of pBI-NdG6-rSt-657soy or pBI-NdG6-rSt12-657soy.
Leaves were taken from 35 transgenic tobaccos obtained in Example 47(9). Each leaf was divided into pieces in which each piece was 5 to 7 mm wide. Leaf pieces were planted onto MS agar medium containing 0, 0.05, 0.1 or 0.2 mg/L of compound (II) and cultured in the light at room temperature. On the 11th day of culturing, the herbicidal damage of each of the leaf pieces was observed. Further, leaf pieces were planted onto MS agar mediums containing 0, 0.01, 0.02, 0.05 or 0.1 mg/L of compound (XII) and cultured in the light at room temperature. On the 7th day of culturing, the herbicidal damage of each of the leaf pieces was observed. […] An average score for each group was determined by scoring 1 point to a leaf piece that continuously grew, 0.5 points to a halfly withered leaf piece in which chemical damage was observed, and 0 points to a leaf piece which turned white and had withered. […]

[2] = system: present invention protein (A12); experiment: Metabolism of compounds by the present invention protein (A12), reaction solution, HPLC; type: in vitro ADME, Streptomyces tsusimaensis IFO 13782; settings: 5 ppm of compound, components A, B, C, 20 μl supernatant fraction of Example 34(2), 30° C. for 10 minutes
[3] = system: present invention protein (A14); experiment: Metabolism of compounds by the present invention protein (A14), reaction solution, HPLC; type: in vitro ADME, Streptomyces glomerochromogenes IFO 13673t; settings: 5 ppm of compound, components A, B, C, 20 μl supernatant fraction of Example 38(2), 30° C. for 10 minutes
[4] = system: present invention protein (A18); experiment: Metabolism of compounds by the present invention protein (A18), reaction solution, HPLC; type: in vitro ADME, Streptomyces achromogenes IFO 12735; settings: 12.5 ppm of compound, components A, B, C, 20 μl supernatant fraction of Example 53(2), 30° C. for 10 minutes
[5] = system: present invention protein (A19); experiment: Metabolism of compounds by the present invention protein (A19), reaction solution, HPLC; type: in vitro ADME, Streptomyces griseus IFO 13849T; settings: 12.5 ppm of compound, components A, B, C, 20 μl supernatant fraction of Example 55(2), 30° C. for 10 minutes
[6] = system: present invention protein (A21); experiment: Metabolism of compounds by the present invention protein (A21), reaction solution, HPLC; type: in vitro ADME, Streptomyces misawanensis IFO 13855T; settings: 12.5 ppm of compound, components A, B, C, 20 μl supernatant fraction of Example 59(2), 30° C. for 10 minutes

| SMILES | average score of leaf pieces compared with the wild type tobacco ([1]; MS agar medium containing 0, 0.05, 0.1 or 0.2 mg/L of compound (II), 11th day) | average score of leaf pieces compared with the wild type tobacco ([1]; MS agar mediums containing 0, 0.01, 0.02, 0.05 or 0.1 mg/L of compound (XII), 7th day) | concentration of the compound detected from metabolism solution (A12) compared to control solution (A12) [2] | concentration of the compound detected from metabolism solution (A14) compared to control solution (A14) [3] | concentration of the compound detected from metabolism solution (A18) compared to control solution (A18) [4] | concentration of the compound detected from metabolism solution (A19) compared to control solution (A19) [5] | concentration of the compound detected from metabolism solution (A21) compared to control solution (A21) [6] |
| --- | --- | --- | --- | --- | --- | --- | --- |
| C[C@@H](Oc1cc(-n2c(=O)cc(C(F)(F)F)n(C)c2=O)c(F)cc1Cl)C(=O)O [compound (II)] | higher |  |  |  |  |  |  |
| Cn1c(C(F)(F)F)cc(=O)n(-c2cc(Oc3cccnc3OCC(=O)O)c(Cl)cc2F)c1=O [compound (XII)] |  | higher | lower | lower | lower | lower | lower |
| Cn1c(C(F)(F)F)cc(=O)n(-c2cc(Oc3ccccc3OCC(=O)O)c(Cl)cc2F)c1=O [compound (XIII)] |  |  | lower | lower | lower | lower | lower |
